Results reported in patent US12410160B2 (Gilead Sciences, Inc., priority 2021, dated 2025).

Experiments:
human KHK-C = human KHK-C (Homo sapiens (Human), UniProt P50053); experiment: KHK Biochemical Assay (IC50), ADP-Glo, KHK-C; settings: ADP-Glo; average of at least two separate assays
Procedure, shortened: (§1)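 His-tagged enzyme expressed in BL21 (DE3), Ni-NTA purified. Compounds, serially diluted 1:3 in DMSO, pre-incubated 30 min with enzyme in 50 mM Hepes pH 7.4, 140 mM KCl, 5 mM MgCl2, 0.01% Triton-X, then ATP and fructose added; 4 h at room temperature. ADP formation read by ADP-Glo luminescence.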

human KHK-A = human KHK-A (Homo sapiens (Human), UniProt P50053); experiment: KHK Biochemical Assay (IC50), ADP-Glo, KHK-A; settings: ADP-Glo; average of at least two separate assays
Procedure, shortened: as §1

Sequence of human KHK-C (P50053 whole entry): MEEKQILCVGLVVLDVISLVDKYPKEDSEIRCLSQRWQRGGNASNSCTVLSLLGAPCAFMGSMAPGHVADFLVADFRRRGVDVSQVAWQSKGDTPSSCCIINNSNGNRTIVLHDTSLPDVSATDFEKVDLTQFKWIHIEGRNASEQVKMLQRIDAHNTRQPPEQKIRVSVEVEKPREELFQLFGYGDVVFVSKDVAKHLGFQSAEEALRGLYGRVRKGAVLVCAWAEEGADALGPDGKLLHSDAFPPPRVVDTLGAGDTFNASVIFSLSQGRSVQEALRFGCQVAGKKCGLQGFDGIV
Sequence of human KHK-A (P50053 other isoform, or with tags, fused parts or gaps): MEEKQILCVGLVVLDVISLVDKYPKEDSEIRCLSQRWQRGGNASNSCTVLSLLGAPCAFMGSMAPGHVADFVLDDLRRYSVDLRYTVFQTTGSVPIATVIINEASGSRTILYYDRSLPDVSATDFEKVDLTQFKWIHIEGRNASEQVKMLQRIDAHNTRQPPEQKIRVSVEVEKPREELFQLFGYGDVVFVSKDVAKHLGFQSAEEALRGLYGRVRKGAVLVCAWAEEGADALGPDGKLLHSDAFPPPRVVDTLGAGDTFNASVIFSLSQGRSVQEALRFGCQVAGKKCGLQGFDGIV

Structure (SMILES)	IC50 (human KHK-C) [nM]	IC50 (human KHK-A) [nM]
C[C@H]1CCN1c1nc2c(c(-c3cc4c(N)nn(C(=O)OC(C)(C)C)c4cn3)n1)CCC2 [Example 868, tert-butyl (S)-3-amino-5-(2-(2-methylazetidin-1-yl)-6,7-dihydro-5H-cyclopenta[d]pyrimidin-4-yl)-1H-pyrazolo[3,4-c]pyridine-1-carboxylate]	230	158
COCCS(=N)(=O)c1cc(-c2nc(N3CC[C@@H]3C)nc3c2CCC3)ccc1OC (stereo partly drawn) [Example 869, imino(2-methoxy-5-(2-((S)-2-methylazetidin-1-yl)-6,7-dihydro-5H-cyclopenta[d]pyrimidin-4-yl)phenyl)(2-methoxyethyl)-λ^6-sulfanone]	21.6	5.9
C[C@H]1CCN1c1nc2c(c(-c3ccc4c(c3)C3(CC3)C(=O)NC4=O)n1)CCC2 [Example 870, (S)-6′-(2-(2-methylazetidin-1-yl)-6,7-dihydro-5H-cyclopenta[d]pyrimidin-4-yl)-1′H-spiro[cyclopropane-1,4′-isoquinoline]-1′,3′(2′H)-dione]	69.5	10.9
C[C@H]1CCN1c1nc2c(c(-c3ccc(-c4noc(=O)[nH]4)cc3)n1)CCC2 [Example 871, (S)-3-(4-(2-(2-methylazetidin-1-yl)-6,7-dihydro-5H-cyclopenta[d]pyrimidin-4-yl)phenyl)-1,2,4-oxadiazol-5(4H)-one]	23.4	50.4
C[C@H]1CCN1c1nc2c(c(-c3cccc(-c4noc(=O)[nH]4)c3)n1)CCC2 [Example 872, (S)-3-(3-(2-(2-methylazetidin-1-yl)-6,7-dihydro-5H-cyclopenta[d]pyrimidin-4-yl)phenyl)-1,2,4-oxadiazol-5(4H)-one]	28.9	27
C[C@H]1CCN1c1nc2c(c(-c3cccc(S(=N)(N)=O)c3)n1)CCC2 (stereo partly drawn) [Example 873, 3-(2-((S)-2-methylazetidin-1-yl)-6,7-dihydro-5H-cyclopenta[d]pyrimidin-4-yl)benzenesulfonimidamide]	23.6	24.1
C[C@H]1CCN1c1nc2c(c(-c3ccc(S(=N)(N)=O)cc3)n1)CCC2 (stereo partly drawn) [Example 874, 4-(2-((S)-2-methylazetidin-1-yl)-6,7-dihydro-5H-cyclopenta[d]pyrimidin-4-yl)benzenesulfonimidamide]	72.3	88.4
C[C@H]1CCN1c1nc2c(c(-c3ccc4c(c3)C3(CC4)CNC(=O)C3)n1)CCC2 (stereo partly drawn) [Example 875, 6-(2-((S)-2-methylazetidin-1-yl)-6,7-dihydro-5H-cyclopenta[d]pyrimidin-4-yl)-2,3-dihydrospiro[indene-1,3′-pyrrolidin]-5′-one]	58	67
C[C@H]1CCN1c1nc2c(c(-c3cccc(-c4nnn[nH]4)c3)n1)CCC2 [Example 876, (S)-4-(3-(1H-tetrazol-5-yl)phenyl)-2-(2-methylazetidin-1-yl)-6,7-dihydro-5H-cyclopenta[d]pyrimidine]	99.4	70.4
C[C@H]1CCN1c1nc2c(c(-c3cccc(S(=N)(=O)CC(=O)N4CCC4)c3)n1)CCC2 (stereo partly drawn) [Example 877, (2-(azetidin-1-yl)-2-oxoethyl)(imino)(3-(2-((S)-2-methylazetidin-1-yl)-6,7-dihydro-5H-cyclopenta[d]pyrimidin-4-yl)phenyl)-λ^6-sulfanone]	208	186
C[C@H]1CCN1c1nc2c(c(-c3cccc(S(=N)(=O)c4ccccc4)c3)n1)CCC2 (stereo partly drawn) [Example 878, imino(3-(2-((S)-2-methylazetidin-1-yl)-6,7-dihydro-5H-cyclopenta[d]pyrimidin-4-yl)phenyl)(phenyl)-λ^6-sulfanone]	86.9	37.8
C[C@H]1CCN1c1nc2c(c(-c3cccc(S(=N)(=O)c4ccc(C#N)cc4)c3)n1)CCC2 (stereo partly drawn) [Example 879, 4-(3-(2-((S)-2-methylazetidin-1-yl)-6,7-dihydro-5H-cyclopenta[d]pyrimidin-4-yl)phenylsulfonimidoyl)benzonitrile]	46.7	41.6
COc1ccc(-c2nc(N3CC[C@@H]3C)nc3c2CCC3)cc1S(=N)(=O)CCN(C)C(C)=O (stereo partly drawn) [Example 881, N-(2-(2-methoxy-5-(2-((S)-2-methylazetidin-1-yl)-6,7-dihydro-5H-cyclopenta[d]pyrimidin-4-yl)phenylsulfonimidoyl)ethyl)-N-methylacetamide]	70.5	46
C[C@H]1CCN1c1nc2c(c(-c3ccc4c(c3)C(NS(C)(=O)=O)CCO4)n1)CCC2 (stereo partly drawn) [Example 883, N-(6-(2-((S)-2-methylazetidin-1-yl)-6,7-dihydro-5H-cyclopenta[d]pyrimidin-4-yl)chroman-4-yl)methanesulfonamide]	14.6	21

Next, values leading:

IC50 (human KHK-C) [nM]	IC50 (human KHK-A) [nM]	Structure (SMILES)
46.1	96.2	CCC1Oc2cc(-c3nc(N4CC[C@@H]4C)nc4c3CCC4)ccc2C1NS(C)(=O)=O (stereo partly drawn) [Example 884, N-(2-ethyl-6-(2-((S)-2-methylazetidin-1-yl)-6,7-dihydro-5H-cyclopenta[d]pyrimidin-4-yl)-2,3-dihydrobenzofuran-3-yl)methanesulfonamide]
26.1	150	C[C@H]1CCN1c1nc2c(c(-c3ccc4c(c3)CC(F)C4NS(C)(=O)=O)n1)CCC2 (stereo partly drawn) [Example 885, N-(2-fluoro-5-(2-((S)-2-methylazetidin-1-yl)-6,7-dihydro-5H-cyclopenta[d]pyrimidin-4-yl)-2,3-dihydro-1H-inden-1-yl)methanesulfonamide]
13.2	27.1	C[C@@H]1Oc2cc(-c3nc(N4CC[C@@H]4C)nc4c3CCC4)ccc2[C@H]1NS(C)(=O)=O [Example 886, N-((2s,3r)-2-methyl-6-(2-((S)-2-methylazetidin-1-yl)-6,7-dihydro-5H-cyclopenta[d]pyrimidin-4-yl)-2,3-dihydrobenzofuran-3-yl)methanesulfonamide]
10.5	44.4	C[C@@H]1Oc2cc(-c3nc(N4CC[C@@H]4C)nc4c3CCC4)ccc2[C@@H]1NS(C)(=O)=O [Example 887, N-((2s,3s)-2-methyl-6-(2-((S)-2-methylazetidin-1-yl)-6,7-dihydro-5H-cyclopenta[d]pyrimidin-4-yl)-2,3-dihydrobenzofuran-3-yl)methanesulfonamide]
4.1	51.3	C[C@H]1CCN1c1nc2c(c(-c3ccc4c(c3)C(O)CC4NS(C)(=O)=O)n1)CCC2 (stereo partly drawn) [Example 888, N-(3-hydroxy-5-(2-((S)-2-methylazetidin-1-yl)-6,7-dihydro-5H-cyclopenta[d]pyrimidin-4-yl)-2,3-dihydro-1H-inden-1-yl)methanesulfonamide]
17.1	98.8	Cc1cc(-c2nc(N3CC[C@@H]3C)nc3c2CCC3)cc2c1C(NS(C)(=O)=O)CO2 (stereo partly drawn) [Example 889, N-(4-methyl-6-(2-((S)-2-methylazetidin-1-yl)-6,7-dihydro-5H-cyclopenta[d]pyrimidin-4-yl)-2,3-dihydrobenzofuran-3-yl)methanesulfonamide]
60.8	141	C[C@H]1CCN1c1nc2c(c(-c3ccc4c(c3)CCCC4NS(C)(=O)=O)n1)CCC2 (stereo partly drawn) [Example 890, N-(6-(2-((S)-2-methylazetidin-1-yl)-6,7-dihydro-5H-cyclopenta[d]pyrimidin-4-yl)-1,2,3,4-tetrahydronaphthalen-1-yl)methanesulfonamide]
